Experimental data: patent publication US20220235328A1, “HUMAN DISEASED AND NORMAL KIDNEY EPITHELIAL CELL CULTURES AND USES THEREOF” (DISCOVERYBIOMED, INC., priority 2019, published 2022)
Values after ≈ are worked out from the molar mass of the structure shown.

Columns and labels:
[1] = system: Immortal Human ADPKD Cell Line; test: TEER of cell monolayers pre- and post-amiloride; type: cell-based; settings: amiloride treatment
Description: High-titer aliquots (10^9 pfu) of Lenti-SV40T, Lenti-hTERT-Neo and Lenti-CDK4 from Applied Biological Materials (ABM) (Richmond, BC, Canada) and Lenti-CDNK2 (Sigma-Aldrich) were diluted into transfection media to 10^7 pfu for cell challenge. In some cases, Lenti-hTERT and Lenti-CDK4 or Lenti-CDNK2 were combined as a newer immortalization method. huADPKD primary cultures were selected for immortalization based on a compelling genotype, an acceptable cell proliferation rate, and an ability to form cysts in 3D Matrigel culture. Mixed immortalized cultures were established by both methods from primary cultures where the lifetime of the cells were doubled from 5 passages (primary) to 10 passages (mixed immortal). The SV40T method was successful in generating immortal cell cultures that formed electrically tight polarized cell monolayers for transepithelial resistance (TEER) measurements and likely Ussing chamber-based electrophysiological recording of ion transport. These immortal human ADPKD cell monolayers may also be useful in fluid transport assays. Transepithelial/transendothelial electrical resistance (TEER) data for a new immortalized human ADPKD cell line are shown in Table 1 below.

ADPKD cells = test: AVP-stimulated cystogenesis, 384-well high-content imaging; type: cell-based, human; settings: 14 days culture in the presence of AVP versus absence
Description: Whole well automated high-content imaging was performed of ADPKD primary cells seeded in 384-well plates using the BioTek Cytation 5 system. Multiple well were captured per treatment. Uniform images were fed into deep learning algorithms for analysis. Stimuli like cAMP agonists and growth factors were not required, as the DBM RenalCyte media was sufficient to drive cystogenesis, as shown in FIG. 14.

ADPKD cell cultures [2] = test: Cyst reduction assay, 3D CellTiterGLO cell viability, CRC design; type: cell-based, human
Text: Results are shown in FIG. 26 for a cyst reduction assay.

ADPKD cell cultures [3] = test: Cyst prevention assay, 3D CellTiterGLO cell viability, CRC design; type: cell-based, human
Description: In this assay, the ADPKD cell cultures were incubated on 4 days before 1 week of treatment with drugs, media only or DMSO only.

primary huADPKD cells [4] = test: Cyst prevention cystogenesis bioassay, 3D biogel, 48-well, light microscopy; settings: for overt cell cytotoxicity: concentrations tested; for effect on cyst appearance and expansion: midway point and end of assay, various concentrations
Description: Primary cells capable of 3D cystogenesis were seeded into a 3D biogel that is liquified before the gel sets. The gel set undisturbed within a humidified 5% CO2 incubator for 18 hours. An equal volume of DBM RenalCyte media was then overlaid in each well of a 48-well plate. “Add” feeds were performed until the well was full, and then half of the volume of media was removed and new media added at the same volume thereafter. […] In the cyst prevention assay, cysts were challenged as soon as they started to appear (small in dimension and few in number per well) with a test compound. The timing of addition of the test compound, frequency of addition of the test compound and concentration of the test compound varied. The effects on the cysts were followed by light-based microscopic imaging over time. In addition to visual inspection by light-based microscopic imaging occurring throughout the study, the number of cysts were counted per well at the end of the study and light-based endpoints were examined, such as 3D CellTiter-GLO® from Promega (Madison, Wis.) (to quantify viable cells), secretion (to quantify cell membrane integrity), and/or Caspase-GLO® (Promega) (to measure induction of apoptosis) in multiplex fashion. A modified version of this assay images after seeding the biogel each day for complete prevention of cyst formation versus counterpart controls over a 14 to 21-day period. Multiple replicates were performed, and cells from multiple donors were tested.

primary huADPKD cells [5] = test: Cyst attack cystogenesis bioassay, cyst image tracking; type: cell-based, human; settings: 3 μM
Description: Primary cells capable of 3D cystogenesis were seeded as described above for the cyst prevention cytogenesis bioassay. In the cyst attack assay, cysts were allowed to develop to 12-24 in number and allowed to expand to a significant size. Specific cysts or cyst clusters were marked in each well. A test compound was then added to attack the already formed cysts to determine effects on the cysts. […] The timing of addition of the compound, frequency of addition of the compound and concentration of the compound varied.
A prominent cyst was imaged before treatment and daily for 6 days after treatment began. This larger cyst increased by 2.5 to 3.0 fold in the presence of the industry standard drug, tolvaptan, a vasopressin receptor antagonist.

[6] = Solubility limit noted in the cyst prevention assay; type: physicochemical
primary huADPKD cells [7] = test: 384-well cyst prevention assay, percent viability versus DMSO control; type: cell-based, human
Description: (§1) A BioTek Cytation 5 (Biotek instruments, Winooski, Vt.) high content imaging and light-based high-throughput screening imaging system was used to image the huADPKD cells growing in 3D Biogels in 96-well and 384-well microliter plates. The Cytation 5 is coupled to a BioTek BioSpa 8 (a humidified CO2 incubator), such that trays can be extracted one at a time for analysis in the reader and then returned to the BioSpa.
While no drivers are required, they can be used if desired. Edge wells are filled with saline to mitigate edge effects
Whole well automated high-content imaging was performed of ADPKD primary cells seeded in 384-well plates using the BioTek Cytation 5 system. Multiple well were captured per treatment. Uniform images were fed into deep learning algorithms for analysis.
(§2) Concentrations of 30-1000 nM were tested for each, and data were expressed as percent viability versus DMSO control (n=12). […] Statistical analysis was performed using ANOVA.

[8] = system: primary human ADPKD cultures; test: 384-well cyst attack assay, 3D CellTiterGLO cell viability; type: cell-based
Description: as §1, §2

[9] = from complete loss of viability signal
[10] = incubated 10 days before 1 week of treatment
[11] = incubated 4 days before 1 week of treatment

N=C(N)NC(=O)c1nc(Cl)c(N)nc1N [Amiloride, amiloride]
change of transepithelial resistance, in words [1]: increase in resistance

NC(=O)CC[C@@H]1NC(=O)[C@H](Cc2ccccc2)NC(=O)[C@H](Cc2ccc(O)cc2)NC(=O)[C@@H](N)CSSC[C@@H](C(=O)N2CCC[C@H]2C(=O)N[C@@H](CCCN=C(N)N)C(=O)NCC(N)=O)NC(=O)[C@H](CC(N)=O)NC1=O [Arginine Vasopressin (AVP), Arginine Vasopressin]
cyst size (ADPKD cells): more larger on average

CC(C)(CO)c1cc2cc(NC(=O)C3(c4ccc5c(c4)OC(F)(F)O5)CC3)c(F)cc2n1C[C@@H](O)CO [VX-661]
IC50 (ADPKD cell cultures [2]; Homo sapiens, incubated 10 days before 1 week of treatment): 30 µM | cytotoxicity (ADPKD cell cultures [2]; [9]): overt cytotoxicity | extent of inhibition, in words (ADPKD cell cultures [2]; [10]): complete inhibition to no signal | IC50 (ADPKD cell cultures [3]; Homo sapiens, incubated 4 days before 1 week of treatment): 10 µM | cytotoxicity (ADPKD cell cultures [3]; [9]): overt cytotoxicity | extent of inhibition, in words (ADPKD cell cultures [3]; [11]): complete inhibition to no signal

Cc1ccc(NC(=O)C2(c3ccc4c(c3)OC(F)(F)O4)CC2)nc1-c1cccc(C(=O)O)c1 [VX-809]
extent of inhibition, in words (ADPKD cell cultures [2]; [10]): only a partial effect and only at the highest concentrations | extent of inhibition, in words (ADPKD cell cultures [3]; [11]): only a partial effect and only at the highest concentration

COc1cc(Nc2c(C#N)cnc3cc(OCCCN4CCN(C)CC4)c(OC)cc23)c(Cl)cc1Cl [bosutinib]
overt cell cytotoxicity (primary huADPKD cells [4]): no overt cell cytotoxicity | effect on cyst appearance and expansion (primary huADPKD cells [4]): no effect | increase in size of a small cyst (primary huADPKD cells [5]; in 1-2 days): 2 fold

CO[C@H]1C[C@@H]2CC[C@@H](C)[C@@](O)(O2)C(=O)C(=O)N2CCCC[C@H]2C(=O)O[C@H]([C@H](C)C[C@@H]2CC[C@@H](O)[C@H](OC)C2)CC(=O)[C@H](C)/C=C(\C)[C@@H](O)[C@@H](OC)C(=O)[C@H](C)C[C@H](C)/C=C/C=C/C=C/1C [rapamycin]
overt toxicity (primary huADPKD cells [5]): not overtly toxic | solubility [6]: ~30 µM (≈ 27.4 µg/mL)

Cc1ccccc1C(=O)Nc1ccc(C(=O)N2CCCC(O)c3cc(Cl)ccc32)c(C)c1 (stereo not shown) [tolvaptan]
cyst expansion (primary huADPKD cells [4]; 10 and 30 micromolar): may have slowed cyst expansion | overt cell cytotoxicity (primary huADPKD cells [4]): no overt cell cytotoxicity | effect on cyst appearance and expansion (primary huADPKD cells [4]): little effect | size of the smaller cyst (primary huADPKD cells [5]; 6 days): quickly reduced in size | size of the large cyst (primary huADPKD cells [5]; week-long treatment): doubled in size but then decreased in size to a slightly reduced size | solubility [6]: ~30 µM (≈ 13.5 µg/mL) | IC50 (primary huADPKD cells [7]; Homo sapiens, cyst prevention assays in 384-well plates, FIG. 24): > 10 µM | efficacy in cAMP stimulated assays (primary huADPKD cells [7]; cAMP stimulated): only slightly more effective | concentrations at which effective (primary huADPKD cells [7]; cyst prevention assays, FIG. 23): only at mid-micromolar concentrations | efficacy, percent viability versus DMSO control (primary huADPKD cells [7]; prevention assay, 30-1000 nM): ineffective | inhibition at 10 µM ([8]; Homo sapiens, 10-fold higher concentration (10 μM), 2 weeks incubation, then 1-week treatment): ~20% | efficacy, percent viability versus DMSO control ([8]; attack assay, 30-1000 nM): ineffective | extent of inhibition, in words (ADPKD cell cultures [2]; [10]): only a partial effect and only at the highest concentrations
